{"source": "patent US10918891B2", "about": "“Cosmetic treatment method for the skin” (SYNTIVIA, priority 2016, dated 2021)", "key": {"[1]": {"tested_on": "NHEK cells", "test": "Survival (WST1) of NHEK keratinocytes exposed to cigarette extract, comparison with caffeic acid", "format": "cell-based, human", "conditions": "compound 10 ppm pretreatment 24 h and treatment 24 h, cigarette extract 1/50, cigarette extract alone 55% survival, FIG. 4", "protocol": "This study aims to compare the protective or repairing effect of the compounds according to the invention (Ia) and (Ib) with respect to the damage induced on the skin by a cigarette extract. For comparison, caffeic acid (supplier: Acros) is also tested. This acid forms a basic unit of the compounds (Ia) and (Ib) according to the invention.\nThe NHEK cells are inoculated in a 96-well plate in a suitable medium (Promocell), at a rate of 9000 cells per well, and incubated 24 h at 37° C. and 5% carbon dioxide.\nThe compounds to be tested are prepared as follows: • (Ia): 10 mg of compound+909 μL of DMSO • (Ib): 7 mg of compound+636 μL of DMSO • caffeic acid: 10 mg of compound+909 μL of DMSO\nEach stock solution above is diluted 1000 times, to 10 ppm in the culture medium, then the solutions obtained are filtered by means of a nylon filter (0.22 μm). The final solutions are concentrated to 10 ppm in 0.1% DMSO.\nSolutions at 20 ppm in 0.2% DMSO are also prepared in a similar manner, for dilution in the cigarette extract.\nAn extract of 20 cigarettes is prepared as indicated in example 14 above. This extract is then diluted to 1/50 in the culture medium; or to 2/50 in the culture medium, then to 1/2 in the culture medium, to which the compound to be tested is added at 20 ppm.\nThe cells are pretreated for 24 h with the compound to be tested at 10 ppm in the culture medium.\nThe cells are then treated with the cigarette extract diluted to 1/50th with or without the compound tested at 10 ppm for 24 h.\n3 h before the end of the test, 10 μl of WST1 cellular proliferation reactant (Roche) are added into each well. The absorbance at 450 nm is measured before and after the addition of WST1 reactant, by means of a Multiskan® reader. The treated cells are compared to the untreated cells and to the cells exposed to the cigarette extract."}, "[2]": {"tested_on": "normal human Keratinocytes (NHEK)", "test": "Reactive oxygen species (H2DCFDA probe) in NHEK after single UVA stress", "format": "cell-based", "protocol": "The cells used for this example are normal human Keratinocytes (NHEK).\nThe antioxidant properties (neutralising the production of reactive oxygen species) of the compound (Ia) are evaluated after a single stress with UVAs on NHEKs, by a test based on the use of the fluorescent probe H2DCFDA on a triple culture.\nH2DCFDA (2′-7′dichlorodihydrofluorescein diacetate, Fischer Scientific) is a probe that, after having diffused into the cell and after its acetate group has been split by intracellular esterases, can be oxidised by free radicals (H2O2) into DCF (2′-7′ dichlorofluorescein), a fluorescent compound. The production of the free radicals can thus be quantified by the level of fluorescence emitted by the oxidised probe. The more the cell produces free radicals, the higher the level of fluorescence detected.\nAfter 24 hours of incubation with the compound (Ia) (3 ppm in an aqueous solution with 0.1% dimethylsulfoxide) or the reference elements, the cells are placed in the presence of the H2DCFDA probe at 3 ppm for 1 hour at 37° C., 5% CO2 in order to allow its intracellular diffusion.\nThe reference antioxidant elements are: Trolox ([…], Sigma), at 20 ppm and Quercetin (quercetin dihydrate, Sigma), at 18 ppm.\nAfter one rinsing, the cells are subjected to a single stress with UVAs (in the absence of compound (Ia)) at a rate of 10 joules per square centimetre. The quantification of the fluorescence emitted (excitation: 485 nm; emission: 520 nm) is carried out immediately after the end of the UVA stress. […]\nIn order to provide a result representative of the cellular population of each condition after a single stress with UVAs, a cellular viability test (MTS) is carried out immediately after the quantification of the fluorescence emitted. The fluorescence values are thus normalised with respect to the cellular viabilities in order for it to be possible to compare the levels of fluorescence of the various conditions to each other."}, "[3]": {"tested_on": "NativeSkin® skin explants (Genoskin)", "test": "Histological analysis (haematoxylin/eosin) of NativeSkin skin explant ex vivo after UVA irradiation", "format": "cell-based, human", "conditions": "composition 0.9 mmol/L topical, 60 J/cm^2 UVA every day for 3 days, FIG. 5", "protocol": "The test was carried out on NativeSkin® skin explants (Genoskin), a biopsy of skin bathed in a solid, nourishing matrix while its epidermal surface is preserved in contact with the air. The biopsy is firmly anchored in the matrix and sealed in order to prevent any lateral diffusion of formulation intended for topical application.\nThe study was carried out on a donor (phototype 2) under the following conditions.\nThe compounds tested are implemented in a composition containing them at 0.9 mmol/L in a mixture of Carbopol® (0.5% p/p), DMSO (0.1% p/p) and H2O (qsp 100%).\nThe samples are irradiated at 60 J/cm^2 UVA every day for 3 days. A treatment is carried out for 24 h before the irradiation, by application of the composition tested onto the sample (deposition of 40 μl of composition onto the stratum corneum), then a post-treatment of 24 h after the irradiation, in the same manner.\nA Control of the sample of skin non-irradiated and a Control of the sample of skin irradiated are also carried out, both with application of the vehicle alone (0.5% Carbopol®, 0.1% DMSO, H2O). The Control of the non-irradiated sample of skin is introduced into the irradiator in a sheet of aluminium, in such a way as to protect it against UVs.\nThe samples are sampled, cut (according to the conventional method of cryo-sectioning implementing paraffin and freezing) and fixed in 1 ml of formalin for 24 h.\nThe explants are then included in paraffin and sections of 5 μm are made.\nThe slides are then coloured with haematoxylin (basic compound marking the nuclei) and eosin (acidic compound marking the conjunctive tissue).\nThe analysis of the marking is carried out with a DM5000B fluorescence microscope (Leica Microsystems) and 10 images are acquired for each sample."}}}
{"smiles": "Cc1ncc(CO)c(CNC(=O)/C=C/c2ccc(O)c(O)c2)c1O", "note": "[Compound (Ia)]", "values": [{"measurement": "% survival of the cells", "setting": "[1]", "result": 108, "unit": "%"}, {"measurement": "Assay of the fluorescence with H2DCFDA after irradiation of NHEKs with UVAs", "setting": "[2]; 24 h incubation, (Ia) 3 ppm, Trolox 20 ppm, Quercetin 18 ppm, UVA 10 J/cm2, normalised to viability (MTS), CTL UVA 289687.6, CTL without stress 16441.9", "result": 198588.8}, {"measurement": "reduction of the generation of intracellular H2O2 after UVA stress", "setting": "[2]; NHEK, compound 3 ppm, single UVA stress, FIG. 1", "result": 40, "unit": "%"}, {"measurement": "Morphology of the epidermis after UVA irradiation (histological analysis)", "setting": "[3]", "result": "totally protected"}]}
